Tests used:
[1] = target: T1, Aryl Hydrocarbon Receptor (Homo sapiens, UniProt P35869); assay: AhR activation, luciferase reporter (plox-XRE TATA-Luc) in HEP G2 cells; format: cell-based; conditions: 24 h, 1-10 uM
T1 construct: endogenous in cells; host or cells: normal human keratinocytes (NHK) transduced with the reporter lentivector plox-XRE TATA-Luc
T1 sequence (P35869 11-848): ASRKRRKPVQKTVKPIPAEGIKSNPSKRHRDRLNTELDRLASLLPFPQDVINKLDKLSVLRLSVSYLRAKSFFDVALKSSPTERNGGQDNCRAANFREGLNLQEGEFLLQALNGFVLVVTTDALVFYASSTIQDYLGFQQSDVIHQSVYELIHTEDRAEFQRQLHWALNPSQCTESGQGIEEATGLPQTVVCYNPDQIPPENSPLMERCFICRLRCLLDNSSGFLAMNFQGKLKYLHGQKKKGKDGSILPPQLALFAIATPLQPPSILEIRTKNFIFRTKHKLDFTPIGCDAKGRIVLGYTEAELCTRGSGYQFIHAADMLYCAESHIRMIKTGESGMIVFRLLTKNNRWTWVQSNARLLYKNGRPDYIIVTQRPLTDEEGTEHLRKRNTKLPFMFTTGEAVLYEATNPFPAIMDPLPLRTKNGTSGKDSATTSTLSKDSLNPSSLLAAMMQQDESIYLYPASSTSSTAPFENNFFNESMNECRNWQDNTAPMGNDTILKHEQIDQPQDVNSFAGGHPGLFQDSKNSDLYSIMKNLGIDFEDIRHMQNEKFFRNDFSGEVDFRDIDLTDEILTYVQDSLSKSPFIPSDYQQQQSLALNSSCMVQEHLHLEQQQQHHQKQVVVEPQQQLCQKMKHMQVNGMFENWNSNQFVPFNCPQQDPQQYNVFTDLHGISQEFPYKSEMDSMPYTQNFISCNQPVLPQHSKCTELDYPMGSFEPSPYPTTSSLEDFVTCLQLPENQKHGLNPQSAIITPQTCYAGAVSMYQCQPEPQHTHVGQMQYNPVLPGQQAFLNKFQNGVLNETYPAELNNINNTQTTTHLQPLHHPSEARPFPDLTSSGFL
Experimental: AhR activation is measured in HEP G2 cells (hepatocytes, Hep G2 is a human liver carcinoma cell line) stably transfected with the lentivector plox-XRE TATA-Luc. The Hep G2 cells are cultured in a growing media consisting of DMEM (Gibco)+10% fetal bovine serum+penicillin+streptomycin. At D0, the Hep G2 cells are seeded into 12-well plates in proportions of approximately 30,000 cells/cm^2. After 24 h, the medium is replaced with fresh medium and the cells are transduced with the lentivector plox-XRE TATA-Luc. After 48 h, the cells are subcultured and maintained in culture, and tested for their reactivity to 3-phenyl-1H-benzo[f]chromen-1-one. The tests are carried out using the luciferase reporter assay system kit from Promega. At D0, the cells are seeded at a density of approximately 60% confluence, and then treated, at D1, with the test substance diluted to various concentrations in the appropriate culture medium. At D2, the cells are lysed in CLB buffer, and the lysate is clarified by centrifugation for 5 min at 10 000 g. The luciferase activity is measured in 20 microliters of lysate as recommended by the supplier, using the luminoskan luminometer (Thermo). […] Data is processed and EC50's can be calculated from standard data monitoring software.

[2] = tested on: CYP1A1; assay: CYP1A1 activity test (P450-GLO) in HEP G2 or NHK cells; format: cell-based, human; conditions: 24 h, 1-10um, control compound
Experimental: The essential methodology for culture and handling of HEP G2 cells and NHK cells has been described in Examples 2 and 3. The tests are carried out using the P450-GLO assay kit from Promega. At D0, the cells are seeded at a density of approximately 60% confluence, and then treated at D1 with the test substance diluted to various concentrations in the appropriate culture medium. At D2, the CYP1A1 activity is measured as recommended by the supplier, using the non-lytic protocol on a cell monolayer.

[3] = target: T1, Aryl Hydrocarbon Receptor; assay: AhR activation, luciferase reporter (plox-XRE TATA-Luc) in normal human keratinocytes; format: cell-based; conditions: NHK-plox-XRE TATA-Luc cells, 24 h, 1-10 uM
Experimental: AhR activation is also measured in human skin cells such as normal human keratinocytes (NHK cells) or A431 epidermoid cells stably transfected with the lentivector plox-XRE TATA-Luc. The NHK cells are cultured in a specific keratinocyte SFM medium (Gibco)+penicillin+streptomycin. At D0, the NHK cells are seeded into 6-well plates in a proportion of approximately 15,000 cells/cm^2. After 24 h, the medium is replaced with fresh medium and the cells are transduced with the lentivector plox-XRE TATA-Luc. After 48 h, the cells are subcultured and maintained in culture, and tested for their reactivity to 3-phenyl-1H-benzo[f]chromen-1-one. The tests are carried out using the luciferase reporter assay system kit from Promega. At D0, the cells are seeded at a density of approximately 60% confluence, and then treated, at D1, with the test substance diluted to various concentrations in the appropriate culture medium. At D2, the cells are lysed in CLB buffer, and the lysate is clarified by centrifugation for 5 min at 10 000 g. The luciferase activity is measured in 20 microliters of lysate as recommended by the supplier, using the luminoskan luminometer (Thermo). […] Data is processed and EC50's can be calculated from standard data monitoring software.

[4] = tested on: CYP1A1; assay: Induction of Cyp1A1 in HEP G2 cells (EROD assay); format: cell-based; conditions: human, probe 7-ethoxyresorufin (8 μM), HepG2 cells, 1-10 μM range, vs solvent
Experimental: The essential methodology for culture and handling of HEP G2 cells and NHK cells has been described in Examples 2 and 3. HepG2 cells are seeded at between 1×10^4 and 2.5×10^4 cells/well in a 96-well microtitre plate. […] The formation of resorufin is quantified by fluorometry with a fluorescence plate reader. Fluorescence is determined at λex 570 nm and λem 590 nm. The amount of resorufin is calculated from a standard curve generated using 0 to 1 μM resorufin in water at ½ log dilutions. The remaining (i.e. all cells present at the beginning of analysis, since only supernatant is taken to assay EROD) live cells are subsequently utilized for the MIT cytotoxicity assay. MTT is made up in serum-free medium at 5 mg/ml. then added to the cells giving a final concentration of 10% (0.5 mg/ml MTT final) then incubated for 2 h. The medium is carefully removed, then MTT formazan is solubilized by adding 200 μl of DMSO and subsequently mixed on a plate shaker. The absorbance is measured spectrophotometrically at 550 nm and background absorbance at 690 nm is subtracted. A standard curve generated using MTT formazan (dissolved in DMSO) from 0-200 μM (0, 2, 5, 10, 20, 50, 100, 200 μM) is used to calculate the final experimental values which are then expressed as (μmol resorufin/mol MIT formazan) or as fold-induction compared to solvent.

[5] = tested on: sebaceous glands; assay: Mouse ear assay for determination of sebaceous gland prevalence; format: in vivo, C57BL/6J male mice; conditions: 0.7% in DMSO:acetone 50:50, 80 ul dermal twice a day for five days, vs controls
Experimental: C57BL/6J male mice (Harlan Models), approximately 4-5 weeks of age, body weight 20-30 g, were acclimatized (individually housed) for 5 days in a 12 hour light/dark cycle standard laboratory environment (T=20-24° C., relative humidity 30-70%, 15-20 air changes per hour) with access to water and standard rodent chow (Harlan Teklad 2014C supplied by Harlan Laboratories Models, S.L.) ad libitum. […] All animals were monitored daily for reaction to the treatment, signs of illness, and behavioral changes. Body weights were recorded before the first administration and immediately prior to sacrifice. Approximately 12 to 16 hours after the final administration on day 5 the mice were sacrificed by i.p. injection of sodium pentobarbital (200 mg/kg) and the ears were collected. Each ear was sectioned into two halves. For each animal, one-half of one ear was fixed, in neutral phosphate-buffered 4% formaldehyde solution (4% formalin). This trimmed section of the ear was then processed, embedded in paraffin wax and stored at room temperature. The remaining half of that ear and the entire opposite ear was frozen at −80° C. Wax mounted ear pieces were sectioned with a microtome and stained with hematoxylin and eosin. Sebaceous glands were identified visually by their structures. […]

SMILES	induction of the luciferase activity [1]	induction of the CYP1A1 activity [2]	induction (luciferase activity) [3]	fold induction at 24 h [4]	number of differentiated sebocytes [5]	number of sebaceous glands [5]
O=c1cc(-c2ccccc2)oc2ccc3ccccc3c12 [3-phenyl-1H-benzo[f]chromen-1-one]	significant induction	significant induction	significant induction	–	–	–
O=c1c2ccccc2oc2cc3ccccc3cc12 [compound A]	–	–	–	> 20	reduction	clear reduction
